Experimental data: patent publication US20050155119A1, “Chlorophyllous totipotent cell cultures” (Dow AgroSciences LLC, priority 2004, published 2005)

Tests used:
[1] = system: green suspension cells; assay: Response of the green maize suspension to streptomycin and spectinomycin; type: cell-based
[2] = system: PS-II electron transport; assay: Oxygen electrode determination of photosynthetic electron transport with diuron; type: cell-based, maize
Procedure: The oxygen electrode was set up per manufacturer's instructions by covering the silver electrode with layers of KCl solution, cigarette paper, and PTFE gas permeable membrane. The circulating water bath used to maintain a constant temperature of 24° C. during the course of the experiments. An experiment was initiated by the addition of 1 mL of suspension containing 100 mg of the green suspension cells to the electrode chamber. Oxygen uptake within the chamber was limited by the insertion of a plunger to the level of the liquid, and the flea magnet was turned on to assure adequate mixing during each experiment. Data points were collected by LabVIEW 5.1 and sent to an EXCEL spreadsheet. Data points were collected at a rate of 0.2/sec over 70 scans. […]
Photosynthetic electron transport was measured with an oxygen electrode in the absence and presence of diuron (DCMU), a PS-II electron transport inhibitor at several concentrations (Figure below). […] A light intensity of 225 μmol M^−2 S^−1 photosynthetic photon flux density was used to drive electron transport, and oxygen evolution was measured polarographically.
Whether or not Diuron treatment lead to inhibition of oxygen was investigated using an oxygen electrode. To determine amount of photosynthesis occurring in the cells, respiration rates were measured with and without the exposure of the cells to a strong light source. […]

[3] = system: maize; settings: in vivo; cited from earlier work
[4] = system: rice; settings: in vivo; cited from earlier work
[5] = system: Brassica juncea; settings: 100 mg Zn/l (1529 μm) added to soil mixtures; cited from earlier work
[6] = system: Halophila ovalis; settings: 10 mg/l of Zn (153 μm); cited from earlier work

**Q.** Which results are given for [H]/N=C(/N)N[C@H]1[C@H](O)[C@@H](O)[C@H](O[C@@H]2O[C@@H](C)[C@](O)(C=O)[C@H]2O[C@@H]2O[C@@H](CO)[C@H](O)[C@@H](O)[C@@H]2NC)[C@@H](N/C(N)=N\[H])[C@@H]1O [Streptomycin]?
**A.** plants recovered when germinated in Streptomycin-containing medium ([1]; 62.5 mg/L): albino plants were recovered; bleaching of cells ([1]; 125 mg/L): fully bleached; plants recovered when germinated in Streptomycin-containing medium ([1]; 125 mg/l (FIG. 2 legend)): albino plants were recovered; bleaching of cells ([1]; 250 mg/L (FIG. 2 legend)): partially bleached; appearance of cells ([1]; 500 mg/L): excessive browning and necrosis; growth and appearance of green suspension cells ([1]; 500 mg/l, after ~4 weeks): growth was inhibited, and the cells were bleached or browned and showed excessive necrosis

**Q.** With CN(C)C(=O)Nc1ccc(Cl)c(Cl)c1 [diuron] as the molecule, how does the “concentration with greater effect of inhibiting the light reaction of photosynthesis” value ([2]; 100 mg green suspension in 1 mL, illuminated, oxygen electrode) read?
**A.** 0.01 M

**Q.** What about the “effect on light induced oxygen evolution” value ([2]; green suspension, FIG. 4) of the same molecule?
**A.** cut down the light induced oxygen evolution

**Q.** With [Cu] [Cu, Copper] as the molecule, how does the “No Observable Adverse Effect Level (tissue concentration that did not decrease top growth)” value [3] read?
**A.** 40 mg/kg

**Q.** And the “critical Cu toxicity level” value [3]?
**A.** 20 mg/kg

**Q.** What about the “critical level of Cu” value [3] of the same molecule?
**A.** 21 mg/kg

**Q.** What about the “critical Cu toxicity level” value [4] of the same molecule?
**A.** 20 mg/kg

**Q.** With CN[C@@H]1[C@H](O)[C@H](NC)[C@H]2O[C@@]3(O)C(=O)C[C@@H](C)O[C@H]3O[C@@H]2[C@H]1O [spectinomycin] as the molecule, how does the “response of the green suspension” value ([1]; various spectinomycin concentrations) read?
**A.** did not respond

**Q.** With [Zn] [Zn, Zinc] as the molecule, how does the phytotoxicity [5] read?
**A.** not phytotoxic

**Q.** What about the total chlorophyll concentrations [6] of the same molecule?
**A.** increase in total chlorophyll concentrations
